Source: patent US5756450A, “Water soluble monoesters as solubilisers for pharmacologically active compounds and pharmaceutical excipients and novel cyclosporin galenic forms” (Novartis Corporation, priority 1987, dated 1998)

What was measured:
[1] = Solubilisation in aqueous 10% saccharose monolaurate L-1695 solution (Example 12); assay type: physicochemical; conditions: aqueous solution of saccharose monolaurate L-1695, 10% by weight
From the text: A solid solution is obtained by removing the water by freeze drying.

[2] = Water solubility of the active compound; assay type: physicochemical

| amount that can be solubilised per ml [1] | water solubility [2] | Structure (SMILES) |
| --- | --- | --- |
| 3 mg per ml | – | CC(=O)[C@H]1CC[C@H]2[C@@H]3CCC4=CC(=O)CC[C@]4(C)[C@H]3CC[C@]12C [Progesterone] |
| 3 mg per ml | below 0.1 g/100 ml | Cc1ccc2c(-c3ccccc3)nc(=O)n(C(C)C)c2c1 [Proquazone, 1-isopropyl-7-methyl-4-phenyl-2(1H)-quinazolinone] |
